The test system of assay [1] is collagen induced arthritic (CIA) mouse model. The assay is described as follows: Therapeutic efficacy in CIA mouse model (clinical score and joint histology). The settings on record: 30 mg/kg QD. Type of assay: in vivo. The method, then:
FIGS. 9A-9E illustrate therapeutic potential of eHsp90 targeted therapies for the treatment of auto immune diseases. […] FIG. 9D are representative photomicrographs of forepaw, knee and ankle from a disease control (Naïve), diseased vehicle treated and HS-131 treated animals. “W” identifies wrist, arrows identifies representative affected joints, and “S” identifies inflammation. […] Experiment was performed once with 12 biological replicates per group.
CIA Disease: Collagen was prepared at 4 mg/ml in 0.01 N acetic acid. Equal volumes of 4 mg/ml collagen and 5 mg/ml Freund's complete adjuvant were emulsified by hand mixing with syringes for approximately 5 min, at which point a bead of this material holds its form when placed in water. On study days 0 and 21, animals were anesthetized with isoflurane and given intradermal injections of a total of 400 μg of type II collagen in Freund's complete adjuvant at the base of the tail.
CIA Experimental Design: Mice were randomized into treatment groups by body weight on study day 18. Animals were treated from day 21-36 of the study with either 20 μL of HS-131 (30 mg/kg) PO, QD or vehicle (DMSO) PO, QD. On study day 36, the mice were euthanized for necropsy. Clinical scores were given for each of the paws (right front, left front, right rear, left rear) on study days 21-36. 0=normal, 1=one hind or fore paw joints affected or minimal diffuse erythema and swelling, 2=two hind or fore paw joints affected or moderate diffuse erythema and swelling, 3=three hind or fore paw joints affected or moderate diffuse erythema and swelling, 4=four hind or fore paw joints affected or marked diffuse erythema and swelling, 5=entire paw affected, severe diffuse erythema and severe swelling, unable to flex digits. Experimenter was blinded from the treatment group during clinical evaluation and scoring.
Immunohistological Staining: After 24-48 hours in fixative and 4-5 days in 5% formic acid for decalcification, tissues were trimmed, and processed for paraffin embedding. Paws were embedded in paraffin in the frontal plane and the knees were embedded with the patella facing down. Ankles, if left attached to the hind paw, were also embedded in the frontal plane but may be detached and sectioned in the sagittal plane for special purposes. Sections were cut and stained with toluidine blue.
0=Normal. 0.5=Very minimal, affects only 1 joint or minimal multifocal periarticular infiltration of inflammatory cells. 1=Minimal infiltration of inflammatory cells in synovium and periarticular tissue of affected joints. 2=Mild infiltration of inflammatory cells. When referring to paws, generally restricted to affected joints (1-3 affected). 3=Moderate infiltration with moderate edema. When referring to paws, restricted to affected joints, generally 3-4 joints and the wrist or ankle. 4=Marked infiltration affecting most areas with marked edema, 1 or 2 unaffected joints may be present. 5=Severe diffuse infiltration with severe edema affecting all joints (to some extent) and periarticular tissues.
0=Normal. 0.5=Very minimal, affects only one area of the synovium or minimal multifocal periarticular infiltration of inflammatory cells. 1=Minimal infiltration of inflammatory cells in synovium and periarticular tissue of affected synovial areas. 2=Mild diffuse infiltration of inflammatory cells. 3=Moderate diffuse infiltration of inflammatory cells. 4=Marked diffuse infiltration of inflammatory cells. 5=Severe diffuse infiltration of inflammatory cells.
0=Normal. 0.5=Very minimal=Affects marginal zones only of one to several areas (knees) or joints (paws). 1=Minimal=Generally minimal to mild loss of toluidine blue staining (proteoglycan) with no obvious chondrocyte loss or collagen disruption in affected joints/areas. 2=Mild=Generally mild loss of toluidine blue staining (proteoglycan) with focal areas of chondrocyte loss and/or collagen disruption in some affected joints/areas. […]

In a further assay the test system is eHsp90. The assay can be described thus: Flow cytometry uptake of fluor-tethered Hsp90 inhibitors by T cells from human PBMCs. Type of assay: cell-based. The settings on record: anti-CD3/28 stimulated human PBMCs, following activation (FIG. 3A). How it is done: T-cell activation: PBMC aliquots (ZenBio SER-PBMC-F) were washed in RPMI-1640 with 10% FBS and PSG and then rested overnight in a T-75 flask. The suspended cells were then transferred to a fresh flask and activated in fresh RPMI-1640/10% FBS/PSG by 3:20,000 anti-CD3 (BioLegend 317303), 3:20,000 anti-CD28 (BioLegend 302913), and 1:10,000 (30 IU/mL) human IL-2 (CST 8907SC) and incubated for up to 72 hours. In the experiments with longer activation, samples were diluted 1:3 into fresh media containing hIL-2 at 72 hours post initial stimulation with CD3/CD28 antibodies.
Flow Cytometry: The activated/rested cells were plated into a 96-well round bottom plate and pelleted at low speed. Cells were resuspended in chilled media containing titrated HS-131 or HS-198 (in 1% DMSO) and stained for 30 minutes at RT. Fluorochrome tagged inhibitors and media were washed away with a PBS wash, followed by a PBS wash containing 3% NMS. Surface antibody stains were performed in 3% NMS/PBS for 30 minutes followed by PBS washes (2x). Samples were analyzed on BD FACSCanto II flow cytometer. Permeabilized samples were prepared as previously described followed by fixation in 4% Formaldehyde/PBS overnight at 4° C. Sample analysis was performed with Flowing Software and FlowJo.
A hallmark of T cell function is to proliferate rapidly in response to antigen presentation along with appropriate cytokine and costimulatory signaling. This leads to the induction of the chaperone machinery which is essential in facilitating this process. In some respects, antigen induced T cell proliferation may be analogous to oncogene driven metastasis. Therefore, to investigate whether proliferating T cells similarly express eHsp90 during T cell activation, their ability to absorb fluor-tethered Hsp90 inhibitors following an anti-CD3/CD28 challenge was examined (see. FIGS. 2A-2E). The structures of two types of fluor-tethered Hsp90 inhibitors (HS-131 and […]) that were used in the present studies are shown in FIG. 2A. […]
A general note: Flow cytometry measures light scatter and fluorescence of single cells or particles in a stream.

Regarding `Cc1nn(-c2ccc(C(N)=O)c(NCCCOCCOCCOCCOCCOCCCNCc3ccc(C(=C\C=C4\N(CCCCS(=O)(=O)[O-])c5ccccc5C4(C)C)/C=C/C4=[N+](CCCCS(=O)(=O)O)c5ccccc5C4(C)C)cc3)c2)c2c1C(=O)CC(C)(C)C2` [HS-131], in assay [1] (day 21-36, N=12/group (FIG. 9A)), the “pathogenesis of disease development (animals developing disease)” value was “comparable to the vehicle control”. Besides, in assay [1] (day 36, vs vehicle (FIG. 9E)), the “reduction of bone resorption, histological scoring” value was 35%; the “reduction of cartilage damage, histological scoring” value is 36%; the “reduction of inflammation, histological scoring” value is 27%; the “reduction of pannus, histological scoring” value is 35%. Further, in assay [1] (day 36, vs vehicle (FIG. 9E)), the “reduction of periosteal bone, histological scoring” value was determined as 29%. In assay [1] (throughout study period, vs vehicle, p<.001 (FIG. 9B)), the “mean clinical arthritic score” value is on record as “significantly reduced”. The “decrease in clinical score, area under the curve” value in assay [1] (vs vehicle (FIG. 9C)) is about 23%. Moreover, in the assay with eHsp90, the “eHsp90 expression upregulation as determined by HS-131 binding” value is given as 20-25 fold.
